Reference: PubChem BioAssay (NCI)
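Where inhibition never reached the appropriate level, the endpoint shown equals the highest concentration tested. Otherwise, values were interpolated linearly from a five-concentration, 48-hour dose response in 96-well plates. TGI: total growth inhibition.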

How the values were obtained:
Assay in all cases: NCI tumour cell line growth inhibition, 48 h
[1] = system: 786-0 renal
[2] = system: A549 NSCLC
[3] = system: ACHN renal
[4] = system: CCRF-CEM leukemia
[5] = system: COLO 205 colon
[6] = system: DU-145 prostate
[7] = system: EKVX NSCLC
[8] = system: HCT-116 colon
[9] = system: HCT-15 colon
[10] = system: HOP-62 NSCLC
[11] = system: HOP-92 NSCLC
[12] = system: HS 578T breast
[13] = system: HT29 colon
[14] = system: IGROV1 ovarian
[15] = system: K-562 leukemia
[16] = system: KM12 colon
[17] = system: LOX IMVI melanoma
[18] = system: M14 melanoma
[19] = system: MALME-3M melanoma
[20] = system: MCF7 breast
[21] = system: MDA-MB-231 breast
[22] = system: MDA-MB-435
[23] = system: MDA-N
[24] = system: MOLT-4 leukemia
[25] = system: NCI-H226 lung
[26] = system: NCI-H23 lung
[27] = system: NCI/ADR-RES ovarian
[28] = system: OVCAR-3 ovarian
[29] = system: OVCAR-4 ovarian
[30] = system: OVCAR-5 ovarian
[31] = system: OVCAR-8 ovarian
[32] = system: PC-3 prostate
[33] = system: RPMI-8226 leukemia
[34] = system: SF-268 CNS
[35] = system: SF-295 CNS
[36] = system: SK-MEL-2 melanoma
[37] = system: SK-MEL-28 melanoma
[38] = system: SK-MEL-5 melanoma
[39] = system: SK-OV-3 ovarian
[40] = system: SN12C renal
[41] = system: SNB-19 CNS
[42] = system: SNB-75 CNS
[43] = system: SR leukemia
[44] = system: SW-620 colon
[45] = system: TK-10 renal
[46] = system: U251 CNS
[47] = system: UACC-257 melanoma
[48] = system: UACC-62 melanoma
[49] = system: UO-31 renal
[50] = system: CAKI-1 renal
[51] = system: HCC-2998 colon
[52] = system: HL-60(TB) leukemia
[53] = system: NCI-H460 lung
[54] = system: RXF 393 renal
[55] = system: SF-539 CNS
[56] = system: T-47D breast

## CCC(C)[C@@H](NCc1ccccc1)[C@H](OCc1ccccc1)[C@@H]1COC(C)(C)O1 (stereo not given in full)
[1]
  TGI: 46.3 µM
[2]
  TGI: 78.8 µM
[3]
  TGI: 49.7 µM
[4]
  TGI: 60.9 µM
[5]
  TGI: 36.6 µM
[6]
  TGI: 68 µM
[7]
  TGI: 42.7 µM
[8]
  TGI: 29.2 µM
[9]
  TGI: 31.6 µM
[10]
  TGI: > 100 µM
[11]
  TGI: 31.4 µM
[12]
  TGI: 70.7 µM
[13]
  TGI: 23.7 µM
[14]
  TGI: 37.4 µM
[15]
  TGI: 59.8 µM
[16]
  TGI: 44.3 µM
[17]
  TGI: 38 µM
[18]
  TGI: > 100 µM
[19]
  TGI: 45.8 µM
[20]
  TGI: 44.4 µM
[21]
  TGI: 40.4 µM
[22]
  TGI: > 100 µM
[23]
  TGI: > 100 µM
[24]
  TGI: 62.3 µM
[25]
  TGI: 30.6 µM
[26]
  TGI: 44.3 µM
[27]
  TGI: 55.3 µM
[28]
  TGI: > 100 µM
[29]
  TGI: > 100 µM
[30]
  TGI: 90.8 µM
[31]
  TGI: 45.4 µM
[32]
  TGI: > 100 µM
[33]
  TGI: 36.1 µM
[34]
  TGI: 68.6 µM
[35]
  TGI: 60.2 µM
[36]
  TGI: 35 µM
[37]
  TGI: 71.4 µM
[38]
  TGI: 29 µM
[39]
  TGI: > 100 µM
[40]
  TGI: 49 µM
[41]
  TGI: 57.3 µM
[42]
  TGI: > 100 µM
[43]
  TGI: 60.5 µM
[44]
  TGI: 48.5 µM
[45]
  TGI: 32.7 µM
[46]
  TGI: 51.1 µM
[47]
  TGI: 38.1 µM
[48]
  TGI: 42.3 µM
[49]
  TGI: 41.3 µM

## O=C(CP(c1ccccc1)c1ccccc1)c1cccc(C(=O)CP(c2ccccc2)c2ccccc2)c1
[1]
  TGI: > 100 µM
[2]
  TGI: > 100 µM
[3]
  TGI: > 100 µM
[50]
  TGI: > 100 µM
[4]
  TGI: > 100 µM
[5]
  TGI: > 100 µM
[6]
  TGI: > 100 µM
[7]
  TGI: > 100 µM
[51]
  TGI: > 100 µM
[8]
  TGI: > 100 µM
[9]
  TGI: > 100 µM
[52]
  TGI: 42.8 µM
[10]
  TGI: > 100 µM
[12]
  TGI: > 100 µM
[13]
  TGI: > 100 µM
[14]
  TGI: > 100 µM
[15]
  TGI: > 100 µM
[16]
  TGI: > 100 µM
[18]
  TGI: > 100 µM
[20]
  TGI: > 100 µM
[21]
  TGI: > 100 µM
[22]
  TGI: > 100 µM
[23]
  TGI: > 100 µM
[24]
  TGI: 48 µM
[25]
  TGI: > 100 µM
[53]
  TGI: > 100 µM
[27]
  TGI: > 100 µM
[29]
  TGI: > 100 µM
[30]
  TGI: > 100 µM
[31]
  TGI: > 100 µM
[32]
  TGI: > 100 µM
[33]
  TGI: 67.4 µM
[54]
  TGI: > 100 µM
[34]
  TGI: > 100 µM
[35]
  TGI: > 100 µM
[55]
  TGI: > 100 µM
[36]
  TGI: > 100 µM
[37]
  TGI: > 100 µM
[38]
  TGI: > 100 µM
[39]
  TGI: > 100 µM
[40]
  TGI: > 100 µM
[41]
  TGI: > 100 µM
[42]
  TGI: > 100 µM
[43]
  TGI: 61.5 µM
[44]
  TGI: > 100 µM
[56]
  TGI: 94.8 µM
[45]
  TGI: > 100 µM
[46]
  TGI: > 100 µM
[47]
  TGI: > 100 µM
[48]
  TGI: > 100 µM
[49]
  TGI: 50.8 µM
